Results reported in PubChem BioAssay AID248 (DTP/NCI, 2004).
“And” between values parts separate entries of the source, which are not always exact repeats. Equal entries are not always repeated. Toxic doses and inconclusive results are not listed. Cut-off read from the data, not from the text of the source: active = T/C of 150% or more; inactive = T/C below 125%.

System: L1210 leukemia ip in BDF1 mice, survival T/C
Assay: NCI In Vivo Anticancer Drug Screen. Data for tumor model L1210 Leukemia (intraperitoneal) in B6D2F1 (BDF1) mice
Details: endpoint: mean survival time, higher = longer survival
How it was run: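 Read-out is survival time, reported as the treated-group measurement over the vehicle-control measurement.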

[1] = dose: 100.0 mg/kg/injection, schedule: Q04DX003 (ip), vehicle: saline
[2] = dose: 200.0 mg/kg/injection, schedule: Q04DX003 (ip), vehicle: saline
[3] = dose: 100.0 mg/kg/injection, schedule: Q04DX002 (ip), vehicle: Klucel (hydroxypropylcellulose) (HPC)
[4] = dose: 200.0 mg/kg/injection, schedule: Q04DX002 (ip), vehicle: Klucel (hydroxypropylcellulose) (HPC)
[5] = dose: 400.0 mg/kg/injection, schedule: Q04DX002 (ip), vehicle: Klucel (hydroxypropylcellulose) (HPC)
[6] = dose: 400.0 mg/kg/injection, schedule: Q04DX003 (ip), vehicle: saline
[7] = dose: 100.0 mg/kg/injection, schedule: Q01DX001 (ip), vehicle: Klucel (hydroxypropylcellulose) (HPC)
[8] = dose: 200.0 mg/kg/injection, schedule: Q01DX001 (ip), vehicle: Klucel (hydroxypropylcellulose) (HPC)
[9] = dose: 400.0 mg/kg/injection, schedule: Q01DX001 (ip), vehicle: Klucel (hydroxypropylcellulose) (HPC)
[10] = dose: 100.0 mg/kg/injection, schedule: Q04DX003 (ip), vehicle: Klucel (hydroxypropylcellulose) (HPC)
[11] = dose: 25.0 mg/kg/injection, schedule: Q04DX002 (ip), vehicle: Klucel (hydroxypropylcellulose) (HPC)
[12] = dose: 50.0 mg/kg/injection, schedule: Q04DX002 (ip), vehicle: Klucel (hydroxypropylcellulose) (HPC)
[13] = dose: 100.0 mg/kg/injection, schedule: Q04DX003 (ip), vehicle: carboxymethylcellulose (CMC)
[14] = dose: 200.0 mg/kg/injection, schedule: Q04DX003 (ip), vehicle: carboxymethylcellulose (CMC)
[15] = dose: 400.0 mg/kg/injection, schedule: Q04DX003 (ip), vehicle: carboxymethylcellulose (CMC)

Measured: T/C

C=C=CCCCC
inactive: dose: 75.0 mg/kg/injection, schedule: Q01DX001 (ip), vehicle: saline 101 % of control | dose: 75.0 mg/kg/injection, schedule: Q04DX003 (ip), vehicle: saline 112 % of control | dose: 150.0 mg/kg/injection, schedule: Q01DX001 (ip), vehicle: saline 111 % of control | dose: 150.0 mg/kg/injection, schedule: Q04DX003 (ip), vehicle: saline 104 % of control | dose: 300.0 mg/kg/injection, schedule: Q01DX001 (ip), vehicle: saline 102 % of control | dose: 300.0 mg/kg/injection, schedule: Q04DX003 (ip), vehicle: saline 101 % of control

C/C(Cc1ccccc1)=N\[N+](C)(C)C
inactive: dose: 75.0 mg/kg/injection, schedule: Q01DX009 (ip), vehicle: saline 107 % of control | [1] 104 % of control | dose: 150.0 mg/kg/injection, schedule: Q01DX009 (ip), vehicle: saline 100 % of control | [2] 86 % of control

CC(=O)CC(=O)Nc1cccc(O)c1
inactive: dose: 200.0 mg/kg/injection, schedule: Q01DX009 (ip), vehicle: Klucel (hydroxypropylcellulose) (HPC) 91 % of control | dose: 400.0 mg/kg/injection, schedule: Q01DX009 (ip), vehicle: Klucel (hydroxypropylcellulose) (HPC) 100 % of control

CCCCCCCc1nc(N)nc(N2CCOCC2)n1
inactive: [3] 89 % of control | [4] 100 % of control | [5] 110 % of control

O=C(c1ccccc1)c1nc2ccccc2s1
inactive: dose: 12.5 mg/kg/injection, schedule: Q01DX005 (ip), vehicle: other 94 % of control | dose: 25.0 mg/kg/injection, schedule: Q01DX005 (ip), vehicle: other 90 % of control | dose: 50.0 mg/kg/injection, schedule: Q01DX005 (ip), vehicle: other 89 % of control | dose: 100.0 mg/kg/injection, schedule: Q01DX005 (ip), vehicle: other 89 % of control | dose: 200.0 mg/kg/injection, schedule: Q01DX005 (ip), vehicle: other 89 % of control

C[n+]1cccc2cccc(N)c21
inactive: dose: 10.0 mg/kg/injection, schedule: Q01DX001 (ip), vehicle: other 105 % of control | dose: 20.0 mg/kg/injection, schedule: Q01DX001 (ip), vehicle: other 115 % of control | dose: 40.0 mg/kg/injection, schedule: Q01DX001 (ip), vehicle: other 105 % of control

N#CCCS(=O)(=O)O
inactive: dose: 100.0 mg/kg/injection, schedule: Q01DX001 (ip), vehicle: saline 100 % of control | dose: 100.0 mg/kg/injection, schedule: Q01DX009 (ip), vehicle: saline 98 % of control and 122 % of control | dose: 100.0 mg/kg/injection, schedule: Q04DX002 (ip), vehicle: saline 97 % of control | [1] 95 % of control | dose: 200.0 mg/kg/injection, schedule: Q01DX001 (ip), vehicle: saline 97 % of control | dose: 200.0 mg/kg/injection, schedule: Q01DX009 (ip), vehicle: saline 98 % of control and 108 % of control | dose: 200.0 mg/kg/injection, schedule: Q04DX002 (ip), vehicle: saline 106 % of control and 90 % of control | [2] 103 % of control | dose: 400.0 mg/kg/injection, schedule: Q01DX001 (ip), vehicle: saline 105 % of control | dose: 400.0 mg/kg/injection, schedule: Q01DX009 (ip), vehicle: saline 102 % of control and 108 % of control | dose: 400.0 mg/kg/injection, schedule: Q04DX002 (ip), vehicle: saline 87 % of control and 92 % of control | [6] 97 % of control

C#CC(C)(C)OC(C)=O
inactive: [7] 99 % of control | dose: 100.0 mg/kg/injection, schedule: Q04DX003 (ip), vehicle: saline with Tween-80 92 % of control | [8] 99 % of control | dose: 200.0 mg/kg/injection, schedule: Q04DX003 (ip), vehicle: saline with Tween-80 103 % of control | [9] 104 % of control | dose: 400.0 mg/kg/injection, schedule: Q04DX003 (ip), vehicle: saline with Tween-80 92 % of control

O=C1C=CC(=O)C=C1
inactive: dose: 0.5 mg/kg/injection, schedule: Q01DX009 (ip), vehicle: saline 97 % of control | dose: 1.0 mg/kg/injection, schedule: Q01DX009 (ip), vehicle: saline 97 % of control | dose: 2.0 mg/kg/injection, schedule: Q01DX009 (ip), vehicle: saline 94 % of control | dose: 4.0 mg/kg/injection, schedule: Q01DX009 (ip), vehicle: saline 94 % of control

CC1C2CCC(C2)C1(C)C (configuration not stated)
inactive: [7] 93 % of control | [8] 100 % of control | [9] 102 % of control

COc1cccc(CCNC(=O)CC#N)c1
inactive: [10] 98 % of control | dose: 200.0 mg/kg/injection, schedule: Q04DX003 (ip), vehicle: Klucel (hydroxypropylcellulose) (HPC) 87 % of control | dose: 400.0 mg/kg/injection, schedule: Q04DX003 (ip), vehicle: Klucel (hydroxypropylcellulose) (HPC) 91 % of control

CC(=O)NC(N)=S
inactive: [11] 108 % of control | [12] 108 % of control | dose: 50.0 mg/kg/injection, schedule: Q04DX003 (ip), vehicle: Klucel (hydroxypropylcellulose) (HPC) 97 % of control | [3] 108 % of control | [10] 103 % of control

CN(C)C(=O)C1C2C=CC(C3CC23)C1C(=O)N(C)C (configuration not stated)
inactive: [1] 95 % of control | [2] 90 % of control | [6] 95 % of control

Clc1cc(CBr)c(CBr)cc1Cl
inactive: dose: 12.5 mg/kg/injection, schedule: Q04DX003 (ip), vehicle: saline with Tween-80 94 % of control | dose: 25.0 mg/kg/injection, schedule: Q04DX003 (ip), vehicle: saline with Tween-80 97 % of control | dose: 50.0 mg/kg/injection, schedule: Q04DX003 (ip), vehicle: saline with Tween-80 91 % of control

O=C(O)CC1(C(=O)O)CC2CCC1C2 (configuration not stated)
inactive: dose: 100.0 mg/kg/injection, schedule: Q01DX009 (ip), vehicle: carboxymethylcellulose (CMC) 91 % of control | [13] 103 % of control | dose: 200.0 mg/kg/injection, schedule: Q01DX009 (ip), vehicle: carboxymethylcellulose (CMC) 94 % of control | [14] 103 % of control | dose: 400.0 mg/kg/injection, schedule: Q01DX009 (ip), vehicle: carboxymethylcellulose (CMC) 92 % of control | [15] 100 % of control

ICC12CC=CCC1(CI)CCCC2 (configuration not stated)
inactive: dose: 150.0 mg/kg/injection, schedule: Q04DX002 (ip), vehicle: Klucel (hydroxypropylcellulose) (HPC) 105 % of control | dose: 300.0 mg/kg/injection, schedule: Q04DX002 (ip), vehicle: Klucel (hydroxypropylcellulose) (HPC) 97 % of control

CNc1nnnn1-c1ccccc1
inactive: dose: 100.0 mg/kg/injection, schedule: Q01DX001 (ip), vehicle: acetone 95 % of control | dose: 200.0 mg/kg/injection, schedule: Q01DX001 (ip), vehicle: acetone 100 % of control | dose: 400.0 mg/kg/injection, schedule: Q01DX001 (ip), vehicle: acetone 95 % of control

COc1cc(NC(=O)Nc2ccc(Cl)c(C(F)(F)F)c2)ccc1NC(C)=O
inactive: dose: 50.0 mg/kg/injection, schedule: Q01DX009 (ip), vehicle: carboxymethylcellulose (CMC) 96 % of control and 103 % of control | dose: 100.0 mg/kg/injection, schedule: Q01DX001 (ip), vehicle: carboxymethylcellulose (CMC) 103 % of control and 105 % of control | dose: 100.0 mg/kg/injection, schedule: Q04DX002 (ip), vehicle: carboxymethylcellulose (CMC) 94 % of control | [13] 101 % of control and 105 % of control | dose: 200.0 mg/kg/injection, schedule: Q01DX001 (ip), vehicle: carboxymethylcellulose (CMC) 100 % of control and 102 % of control | dose: 200.0 mg/kg/injection, schedule: Q04DX002 (ip), vehicle: carboxymethylcellulose (CMC) 96 % of control and 90 % of control | [14] 92 % of control and 99 % of control | dose: 400.0 mg/kg/injection, schedule: Q01DX001 (ip), vehicle: carboxymethylcellulose (CMC) 97 % of control and 105 % of control | dose: 400.0 mg/kg/injection, schedule: Q04DX002 (ip), vehicle: carboxymethylcellulose (CMC) 96 % of control and 90 % of control | [15] 92 % of control

Nc1ccc(C(=O)N/N=C\c2cccc3ccccc23)cc1
inactive: [3] 97 % of control | [4] 90 % of control | [5] 93 % of control

O=C1Nc2ccccc2C1Cc1cc2c(nn1)[nH]c1ccccc12 (configuration not stated)
inactive: dose: 12.5 mg/kg/injection, schedule: Q04DX002 (ip), vehicle: Klucel (hydroxypropylcellulose) (HPC) 95 % of control | [11] 106 % of control | [12] 103 % of control | [3] 122 % of control | [4] 96 % of control | [5] 92 % of control
